Test results as given in paper PMC6321509, “Search of Allosteric Inhibitors and Associated Proteins of an AKT-like Kinase from Trypanosoma cruzi” (International Journal of Molecular Sciences, 2018).
Like-named read-outs stand apart in the source and are kept apart here.

Assays:
Format in all cases: cell-based
Leishmania braziliensis = test: In vitro experiments on Leishmania braziliensis; conditions: mean ± SD
in vitro = conditions: MTT, read-out: LC50 lethal concentration on human monocyte-derived macrophages (hMDMD)
Protocol: The cytotoxicity of the compounds was evaluated according to the ability to kill macrophages derived from human monocytes (hMDM) by the […] method, following the procedures performed by Pastrana Restrepo et al.. The hMDM were obtained from 50 mL of desfribrinated whole blood from healthy donors. These samples were mixed in a 1:1 ratio with Dulbecco PBS free of calcium and magnesium (DPBS). The mixture was centrifuged in a Ficoll Hypaque 1077 density gradient in a 1:3 ratio (blood–Ficoll) for separation of mononuclear cells, centrifuging at 2000 rpm for 20 min at 37 °C. The mononuclear cell layer was separated and these cells were washed twice with a solution of DPBS centrifuged at 13000 rpm for 10 min. After the last wash, the cells were resuspended in an RPMI medium with 10% autologous serum at a concentration of 0.3 × 10^6 cells/mL. Then, 1 mL of cells was placed in each well of 24-well culture dishes and incubated at 37 °C, 5% CO2 for 72 h to allow the differentiation of monocytes to macrophages. For the MTT test, the hMDM were adjusted to a concentration of 0.5 × 10^6 cells/mL in the RPMI medium supplemented with 10% FBS, and the concentration of the compound in the culture was adjusted (four serial dilutions starting at 200 μM). Amphotericin B and Doxorubicin were used as controls for the determination of cytotoxicity. Each experiment was performed in triplicate.
In this case, the in vitro cytotoxicity was defined by the decrease in the cell viability and growth, obtained from the OD for each experimental condition, using the following formula: (%) viability inhibition = […], where the OD of untreated cells corresponds to 100% of the viability. Growth inhibition percentage data obtained for each experimental condition were used to calculate the half lethal concentration (LC50) by the Probit analysis.
The cytotoxicity of each compound was rated according to its LC50. […]

T. cruzi amastigote = test: In vitro antitrypanosomal activity, amastigotes in U937 macrophages (β-galactosidase Tulahuen strain); conditions: Trypanosoma cruzi, U-937; infected U937 macrophages, 72 h; mean ± SD; read-out: IC50 inhibitory concentration of T. cruzi amastigote
Protocol: A human promonocitic U937 line was cultivated in RPMI-1640 medium with 10% fetal bovine serum (FBS) at a concentration of 0.25 × 10^6 cells/mL; the cells were transformed into macrophages by being incubated with phorbol 12-myristate 13-acetate (PMA) at 0.1 µg/mL. To adhere the cells, 0.1 mL of cells was added in 96-well dishes. Adherence was carried out for 72 h, and then epimastigote were added in the stationary phase of the Tulahuen strain producing β-galactosidase, at 5 parasite/cellU937 concentrations for 24 h at 37 °C with 5% CO2. To calculate the IC50 (Table 2), different concentrations of the compounds to evaluate and Benznidazole were added at an initial concentration of 20 µg/mL and 6 serial dilutions were made as a control of the effectiveness of the experiment, in addition to the control of the viability of the parasites (cells without drug treatment), from the blank of the culture medium (medium without cells), in duplicate. The cells were incubated for 72 h at 37 °C with 5% of CO2. […] The colorimetric reaction was read at 570 nm and optical densities (OD) for each experimental condition were registered. […] The half inhibitory concentration (IC50) was calculated by the Probit method using the % of inhibition for each concentration. […]

SMILES	IC50 (Leishmania braziliensis)	CC50 (in vitro; mean ± SD)	IC50 (T. cruzi amastigote)	CC50 (in vitro)
C[C@@H]1[C@H](O)[C@@H](C)/C=C/C=C/C=C/C=C/C=C/C=C/C=C/[C@H](O[C@@H]2O[C@H](C)[C@@H](O)[C@H](N)[C@@H]2O)C[C@@H]2O[C@](O)(C[C@@H](O)C[C@@H](O)[C@H](O)CC[C@@H](O)C[C@@H](O)CC(=O)O[C@H]1C)C[C@H](O)[C@H]2C(=O)O [Amphotericin B]	0.3 ± 0.07 µM	49.8 ± 6.82 µM	–	–
O=C(Cn1ccnc1[N+](=O)[O-])NCc1ccccc1 [Benznidazole]	–	–	16.6 ± 4 µM	> 200 µg/mL
COc1cccc2c1C(=O)c1c(O)c3c(c(O)c1C2=O)C[C@@](O)(C(=O)CO)C[C@@H]3O[C@H]1C[C@H](N)[C@H](O)[C@H](C)O1 [Doxorrubicin, Doxorubicin]	–	3.91 ± 0.4 µM	–	–
